Source: US11839671B2, “Oral care compositions comprising tin ions” (The Procter & Gamble Company, priority 2019, dated 2023)

Test: Solubility of tin ions in polyol solutions with SnF2 at various pH (visual appearance)
Assay type: physicochemical
Settings: for Appearance of polyol solution with SnF2, pH 2-4 / Appearance of polyol solution with SnF2, pH 4-6 / Appearance of polyol solution with SnF2, pH 6-8 / Appearance of polyol solution with SnF2, pH 8-10: aqueous polyol solution + 0.45 g SnF2; for Appearance of polyol solution with SnF2, pH 2-4 / Appearance of polyol solution with SnF2, pH 4-6 / Appearance of polyol solution with SnF2, pH 6-8: cloudy = insoluble tin complexes formed; for Appearance of polyol solution with SnF2, pH 8-10: cloudy = Sn(OH)2 formed; for Appearance of polyol/stannous fluoride solution at a pH of greater than 7: aqueous polyol/stannous fluoride solution, pH greater than 7, cloudy = Sn(OH)2 formation not prevented
Description: A 30% (w/w) solution was prepared for each polyol was prepared using the appropriate amount of the pure polyol and deionized water. Next, 46 g of the 30% (w/w) polyol solution was placed in a 250 mL glass beaker with a stirring bar on top of a magnetic stirring apparatus. 21 g of deionized water was added to the glass beaker and the magnetic stirring apparatus was started to commence stirring of the solution. A pH electrode was connected to a pH meter (VWR Scientific, Model 9100, Radnor, Pa.) and the pH electrode (ThermoFisher Scientific, Orion 8165BNWP, Waltham, Mass.) was placed in the stirring polyol solution.
0.45 grams of a tin ion source, such as stannous fluoride, was added to the stirring polyol solution. The pH was recorded once the tin ion source was completely added. The pH of the solution was increased by dropwise addition of a 33% (w/w) solution of NaOH.
0.45 grams of a tin ion source, such as stannous fluoride, was added to the stirring polyol solution. The pH was recorded once the tin ion source was completely added. The pH of the solution was decreased by dropwise addition of a 33% (w/w) solution of HCl.
A solution that appeared cloudy indicated the formation of insoluble tin complexes. At a pH of greater than 7, a cloudy solution indicated the formation of Sn(OH)2. FIG. 1-4 illustrates TABLE 2 by showing the appearance of each solution described in TABLE 2.

| SMILES | Appearance of polyol solution with SnF2, pH 2-4 | Appearance of polyol solution with SnF2, pH 4-6 | Appearance of polyol solution with SnF2, pH 6-8 | Appearance of polyol solution with SnF2, pH 8-10 | Appearance of polyol/stannous fluoride solution at a pH of greater than 7 | Appearance of polyol solution with SnF2, pH 2-4 (listed as sorbitol) | Appearance of polyol solution with SnF2, pH 4-6 (listed as sorbitol) | Appearance of polyol solution with SnF2, pH 6-8 (listed as sorbitol) | Appearance of polyol solution with SnF2, pH 8-10 (listed as sorbitol) | Appearance of polyol solution with SnF2, pH 2-4 (listed as xylitol) | Appearance of polyol solution with SnF2, pH 4-6 (listed as xylitol) | Appearance of polyol solution with SnF2, pH 6-8 (listed as xylitol) | Appearance of polyol solution with SnF2, pH 8-10 (listed as xylitol) |
| --- | --- | --- | --- | --- | --- | --- | --- | --- | --- | --- | --- | --- | --- |
| OCC(O)CO [Glycerin (3 Carbon), Glycerin] | Clear | Clear | Cloudy | Cloudy | cloudy |  |  |  |  |  |  |  |  |
| OC[C@@H](O)[C@@H](O)[C@H](O)[C@@H](O)CO [Sorbitol (6 Carbon), Sorbitol] | Clear | Cloudy | Cloudy | Clear |  | clear | cloudy | cloudy | clear |  |  |  |  |
| OC[C@@H](O)[C@H](O)[C@@H](O)CO [Xylitol (5 Carbon), Xylitol] | Clear | Cloudy | Cloudy | Clear |  |  |  |  |  | clear | cloudy | cloudy | clear |
| OC[C@@H](O)[C@@H](O)CO [Erythritol (4 Carbon), Erythritol] | Clear | Cloudy | Cloudy | Cloudy | cloudy |  |  |  |  |  |  |  |  |
